# Source: patent publication US20020065315A1, “Ion channel modulating agents” (priority 1999, published 2002)
# Tests used:
# [1] = test system: T cells; assay: Inhibition of T cell proliferation (antigen PPD induced, [3H]thymidine incorporation); format: cell-based; conditions: PPD (10 μg/ml), 144 hours culture, mean of triplicate cultures
# Procedure: The chemical compounds used according to the invention prevent immunological proliferation by selective inhibition of the Ca^2+-activated K-channels in T- and B-lymphocytes. This effect may be verified using various proliferation assays. In this experiment the proliferative assay described by Ødum et al [Ødum N, Kanner S B, Ledbetter J A, & Svejgaard A; J. Immunol. 1993 150 (12) 5289-5298] was used.
# Assays were performed in culture medium (RPMI 1640; available from Gibco, Grand Island, N.Y.) supplemented with 10% pooled human serum, 2 mM L-glutamine, 100 μg/ml penicillin, and 100 μg/ml streptomycin (available from Novo Nordisk, Copenhagen, Denmark) in 96-well round bottom tissue culture plates (available from Nunc, Roskilde, Denmark) with a final volume of 200 μl.
# T cells were pre-incubated for three hours with the test compounds before addition of antigen (PPD, purified protein derivative, 10 μg/ml). T cells were cultured at 5×10^4 cells/well for 144 hours. Twelve hours before harvest, [^3H]thymidine ([…]) was added. The cells were harvested onto glass fibre filters, and the [^3H]thymidine incorporation was measured in a scintillation counter. The results were expressed as mean counts per minute (cpm) from triplicate cultures.
melting point [°C],Compound,T Cell Proliferation ([1]; test compound 2.5 μM) [cpm × 10^−3],T Cell Proliferation ([1]; test compound 10 μM) [cpm × 10^−3],T Cell Proliferation ([1]; test compound 25 μM) [cpm × 10^−3]
,"CC(C)c1cccc(C(C)C)c1-c1cccnc1 [Compound 1B, 3-(2,6-diisopropylphenyl)-pyridine]",19.5,19,14
178 to 180,Cc1ccc(C)n1-c1c(-c2ccccc2)cc(Cl)cc1-c1ccccc1,,,
